Where two headings read alike, the source gives them in different places.
Key:
Type in all cases: cell-based
IGROV-ET = experiment: Inhibition of cells growth by colorimetric assay (SRB), IGROV-ET; conditions: SRB, 48 hours exposure; for GI50 / CC50: Homo sapiens, 48 h
Protocol: (§1) 2°.—Inhibition of Cells Growth by Colorimetric Assay.
(§2) A colorimetric type of assay, using sulforhodamine B (SRB) reaction has been adapted for a quantitative measurement of cell growth and viability [following the technique described by Philip Skehan, et al. (1990), New colorimetric cytotoxicity assay for anticancer drug screening, J. Natl. Cancer Inst., 82:1107-1112]
(§3) This form of the assay employs 96 well cell culture microplates of 9 mm diameter (Faircloth, 1988; Mosmann, 1983). Most of the cell lines are obtained from American Type Culture Collection (ATCC) derived from different human cancer types.
(§4) Cells are maintained in RPMI 1640 10% FBS, supplemented with 0.1 g/l penicillin and 0.1 g/l streptomycin sulfate and then incubated at 37° C., 5% CO2 and 98% humidity. For the experiments, cells were harvested from subconfluent cultures using trypsin and resuspended in fresh medium before plating.
(§5) Cells are seeded in 96 well microtiter plates, at 5×10^3 cells per well in aliquots of 195 μl medium, and they are allowed to attach to the plate surface by growing in drug free medium for 18 hours. Afterward, samples are added in aliquots of 5 μl in a ranging from 10 to 10^−8 μg/ml, dissolved in DMSO/EtOH/PBS (0.5:0.5:99). After 48 hours exposure, the antitumor effect are measured by the SRB methodology: cells are fixed by adding 50 μl of cold 50% (wt/vol) trichloroacetic acid (TCA) and incubating for 60 minutes at 4° C. Plates are washed with deionized water and dried. One hundred μl of SRB solution (0.4% wt/vol in 1% acetic acid) is added to each microtiter well and incubated for 10 minutes at room temperature. Unbound SRB is removed by washing with 1% acetic acid. Plates are air dried and bound stain is solubilized with Tris buffer. Optical densities are read on a automated spectrophotometric plate reader at a single wavelength of 490 nm.
(§6) The values for mean+/−SD of data from triplicate wells are calculated. Some parameters for cellular responses can be calculated: GI=growth inhibition, TGI=total growth inhibition (cytostatic effect) and LC=cell killing (cytotoxic effect).
(§7) Obtained results may predict the usefulness of a certain drug as a potential cancer treatment. For this technique, compounds which show GI50 values smaller than 10 μg/ml are selected to continue with further studies. GI50's data allow to predict that not only could a drug be cystostatic, but also it could have a potential in terms of tumor reduction.

LoVo = experiment: Inhibition of cells growth by colorimetric assay (SRB), LoVo; conditions: SRB, 48 hours exposure; for GI50 / LC50 (concentration for 50% cell killing): Homo sapiens, LoVo, 48 h
Protocol: as §1, §2, §3, §4, §5, §6, §7

SK-OV-3 = experiment: Inhibition of cells growth by colorimetric assay (SRB), SK-OV-3; conditions: SRB, 48 hours exposure; for GI50 / LC50: Homo sapiens, SK-OV-3, 48 h
Protocol: as §1, §2, §3, §4, §5, §6, §7

LoVo-Dox = experiment: Inhibition of cells growth by colorimetric assay (SRB), LoVo-Dox; conditions: SRB, 48 hours exposure; for GI50 / CC50: Homo sapiens, 48 h
Protocol: as §1, §2, §3, §4, §5, §6, §7

HT-29 = experiment: Inhibition of cells growth by colorimetric assay (SRB), HT-29; conditions: SRB, 48 hours exposure; for GI50 / LC50 (concentration for 50% cell killing): Homo sapiens, HT-29, 48 h
In short: (§8)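 Human cancer cells (5×10^3/well) attached 18 h in RPMI 1640 10% FBS, then exposed 48 h at 37°C to compounds from 10 to 10^−8 μg/ml in DMSO/EtOH/PBS. TCA-fixed, SRB-stained, OD read at 490 nm; GI, TGI and LC derived from triplicate wells.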

LNCaP = experiment: Inhibition of cells growth by colorimetric assay (SRB), LNCaP; conditions: SRB, 48 hours exposure
Protocol: as §1, §2, §3, §4, §5, §6, §7

PANC-1 = experiment: Inhibition of cells growth by colorimetric assay (SRB), PANC-1; conditions: SRB, 48 hours exposure; for GI50 / LC50 (concentration for 50% net cell kill): Homo sapiens, PANC-1, 48 h
Protocol: as §1, §2, §3, §4, §5, §6, §7

A-549 = experiment: Inhibition of cells growth by colorimetric assay (SRB), A-549; conditions: SRB, 48 hours exposure; for GI50 / LC50 (concentration for 50% cell killing): Homo sapiens, A549, 48 h
In short: as §8

SK-MEL-28 = experiment: Inhibition of cells growth by colorimetric assay (SRB), SK-MEL-28; conditions: SRB, 48 hours exposure; for GI50 / CC50: Homo sapiens, SK-MEL-28, 48 h
Protocol: as §1, §2, §3, §4, §5, §6, §7

DU-145 = experiment: Inhibition of cells growth by colorimetric assay (SRB), DU-145; conditions: SRB, 48 hours exposure; for GI50 / CC50: Homo sapiens, DU-145, 48 h
Protocol: as §1, §2, §3, §4, §5, §6, §7

K-562 = experiment: Inhibition of cells growth by colorimetric assay (SRB), K-562; conditions: SRB, 48 hours exposure; for GI50 / LC50 (50% cell killing): Homo sapiens, K562, 48 h
Protocol: as §1, §2, §3, §4, §5, §6, §7

IGROV-1 = experiment: Inhibition of cells growth by colorimetric assay (SRB), IGROV-1; conditions: SRB, 48 hours exposure; for GI50 / CC50: Homo sapiens, IGROV-1, 48 h
Protocol: as §1, §2, §3, §4, §5, §6, §7

SK-BR-3 = experiment: Inhibition of cells growth by colorimetric assay (SRB), SK-BR-3; conditions: SRB, 48 hours exposure
Protocol: as §1, §2, §3, §4, §5, §6, §7

COc1cc2c(cc1O)CCN[C@]21CS[C@@H]2c3c(OC(C)=O)c(C)c4c(c3[C@H](COC1=O)N1C2[C@H]2c3c(cc(C)c(OC)c3OC(C)C)C[C@@H]([C@@H]1O)N2C)OCO4 (stereo partly drawn) [Compound 102]
GI50 (IGROV-ET; IGROV-ET, read-out: IGROV-ET GI50): 0.101 µM | CC50 (IGROV-ET; read-out: IGROV-ET LC50, IGROV-ET): 7.81 µM | IGROV-ET TGI (IGROV-ET; IGROV-ET): 1.53E-06 | GI50 (LoVo; LOVO, read-out: LOVO GI50): 0.0698 µM | LC50 (concentration for 50% cell killing) (LoVo; read-out: LOVO LC50, LOVO): 12.4 µM | LOVO TGI (LoVo; LOVO): 4.58E-07 | GI50 (SK-OV-3; SK-OV3, read-out: SK-OV3 GI50): 0.0413 µM | LC50 (SK-OV-3; read-out: SK-OV3 LC50, SK-OV3): 0.124 µM | SK-OV3 TGI (SK-OV-3; SK-OV3): 1.10E-07 | GI50 (LoVo-Dox; LOVO-DOX, read-out: LOVO-DOX GI50): 0.417 µM | CC50 (LoVo-Dox; read-out: LOVO-DOX LC50, LOVO-DOX): 12.4 µM | LOVO-DOX TGI (LoVo-Dox; LOVO-DOX): 1.02E-06 | HT-29 TGI (HT-29; HT-29): 2.19E-06 | GI50 (HT-29; HT-29, read-out: HT-29 GI50): 0.087 µM | LC50 (concentration for 50% cell killing) (HT-29; read-out: HT-29 LC50, HT-29): 12.4 µM | GI50 (LNCaP; Homo sapiens, LNCaP, 48 h, read-out: LNCAP GI50, LNCAP): 0.0175 µM | CC50 (LNCaP; Homo sapiens, LNCaP, 48 h, read-out: LNCAP LC50, LNCAP): 0.0954 µM | LNCAP TGI (LNCaP; LNCAP): 4.09E-08 | GI50 (PANC-1; PANC-1, read-out: PANC-1 GI50): 0.0554 µM | LC50 (concentration for 50% net cell kill) (PANC-1; read-out: PANC-1 LC50, PANC-1): 12.4 µM | PANC-1 TGI (PANC-1; PANC-1): 1.39E-07 | A-549 TGI (A-549; A-549): 4.24E-07 | GI50 (A-549; A-549, read-out: A-549 GI50): 0.152 µM | LC50 (concentration for 50% cell killing) (A-549; read-out: A-549 LC50, A-549): 1.19 µM | GI50 (SK-MEL-28; MEL-28, read-out: MEL-28 GI50): 0.0379 µM | CC50 (SK-MEL-28; read-out: MEL-28 LC50, MEL-28): 0.128 µM | MEL-28 TGI (SK-MEL-28; MEL-28): 6.89E-08 | DU-145 TGI (DU-145; DU-145): 7.84E-08 | GI50 (DU-145; DU-145, read-out: DU-145 GI50): 0.0398 µM | CC50 (DU-145; read-out: DU-145 LC50, DU-145): 0.124 µM | GI50 (K-562; K-562, read-out: K-562 GI50): 0.0102 µM | LC50 (50% cell killing) (K-562; read-out: K-562 LC50, K-562): 0.126 µM | K-562 TGI (K-562; K-562): 4.35E-08 | GI50 (IGROV-1; IGROV, read-out: IGROV GI50): 0.0353 µM | CC50 (IGROV-1; read-out: IGROV LC50, IGROV): 0.134 µM | IGROV TGI (IGROV-1; IGROV): 7.63E-08

COc1cc2c(cc1O)CCN[C@]21CS[C@@H]2c3c(OC(C)=O)c(C)c4c(c3[C@H](COC1=O)N1C2[C@H]2c3c(cc(C)c(OC)c3OC(C)C)C[C@@H]([C@@H]1C#N)N2C)OCO4 (stereo partly drawn) [Compound 48]
GI50 (IGROV-ET; IGROV-ET, read-out: GI50 IGROV-ET): 0.678 µM | CC50 (IGROV-ET; read-out: LC50 IGROV-ET, IGROV-ET): 12.3 µM | TGI IGROV-ET (IGROV-ET; IGROV-ET): 2.93E-06 | GI50 (LoVo; LOVO, read-out: GI50 LOVO): 0.713 µM | LC50 (concentration for 50% cell killing) (LoVo; read-out: LC50 LOVO, LOVO): 12.3 µM | TGI LOVO (LoVo; LOVO): 2.95E-06 | GI50 (SK-OV-3; SK-OV3, read-out: GI50 SK-OV3): 0.614 µM | LC50 (SK-OV-3; read-out: LC50 SK-OV3, SK-OV3): 12.3 µM | TGI SK-OV3 (SK-OV-3; SK-OV3): 3.40E-06 | GI50 (SK-BR-3; Homo sapiens, SK-BR-3, 48 h, SK-BR3, read-out: GI50 SK-BR3): 0.443 µM | CC50 (SK-BR-3; Homo sapiens, SK-BR-3, 48 h, read-out: LC50 SK-BR3, SK-BR3): 6.97 µM | TGI SK-BR3 (SK-BR-3; SK-BR3): 1.54E-06 | GI50 (LoVo-Dox; LOVO-DOX, read-out: GI50 LOVO-DOX): 0.79 µM | CC50 (LoVo-Dox; read-out: LC50 LOVO-DOX, LOVO-DOX): 12.3 µM | TGI LOVO-DOX (LoVo-Dox; LOVO-DOX): 4.18E-06 | TGI HT-29 (HT-29; HT-29): 1.23E-05 | GI50 (HT-29; HT-29, read-out: GI50 HT-29): 1.97 µM | LC50 (concentration for 50% cell killing) (HT-29; read-out: LC50 HT-29, HT-29): 12.3 µM | GI50 (PANC-1; PANC-1, read-out: GI50 PANC-1): 0.91 µM | LC50 (concentration for 50% net cell kill) (PANC-1; read-out: LC50 PANC-1, PANC-1): 12.3 µM | TGI PANC-1 (PANC-1; PANC-1): 5.10E-06 | TGI A-549 (A-549; A-549): 7.50E-07 | GI50 (A-549; A-549, read-out: GI50 A-549): 0.272 µM | LC50 (concentration for 50% cell killing) (A-549; read-out: LC50 A-549, A-549): 3.89 µM | GI50 (SK-MEL-28; MEL-28, read-out: GI50 MEL-28): 1.1 µM | CC50 (SK-MEL-28; read-out: LC50 MEL-28, MEL-28): 7.06 µM | TGI MEL-28 (SK-MEL-28; MEL-28): 2.87E-06 | TGI DU-145 (DU-145; DU-145): 3.20E-06 | GI50 (DU-145; DU-145, read-out: GI50 DU-145): 0.614 µM | CC50 (DU-145; read-out: LC50 DU-145, DU-145): 12.3 µM | GI50 (K-562; K-562, read-out: GI50 K-562): 0.223 µM | LC50 (50% cell killing) (K-562; read-out: LC50 K-562, K-562): 1.23 µM | TGI K-562 (K-562; K-562): 5.47E-07 | GI50 (IGROV-1; IGROV, read-out: GI50 IGROV): 0.439 µM | CC50 (IGROV-1; read-out: LC50 IGROV, IGROV): 7.98 µM | TGI IGROV (IGROV-1; IGROV): 1.78E-06
